# US7037693B2, “Muskmelon (Cucumis melo) hydroperoxide lyase and uses thereof” (Vanderbilt University, priority 2000, dated 2006)
# “And” between values parts separate entries of the source, which are not always exact repeats. Equal values may be shown once.
# B1: melon 9-hydroperoxide lyase (9-HPL) (Cucumis melo) (protein)
# chain: MATPSSSSPELPLKPIPGGYGFPFLGPIKDRYDYFYFQGRDEFFRSRITKYNSTVFRANMPPGPFISSDSRVVVLLDALSFPILFDTAKVEKRNILDGTYMPSLSFTGNIRTCAYLDPSETEHSVLKRLFLSFLASRHDRFIPLFRSSLSEMFVKLEDKLSEKKKIADFNSISDSMSFDYVFRLLSDGTPDSKLAAEGPGMFDLWLVFQLAPLASIGLPKIFSVFEDLVIHTIPLPFFPVKSGYRKLYEAFYSSSGSFLDEAEKQGIDREKACHNLVFLAGFNAYGGMKVLFPTLLKWVGTAGEDLHRKLAEEVRTTVKEEGGLTFSALEKMSLLKSVVYEALRIEPPVPFQYGKAKEDIVIQSHDSSFKIKKGETIFGYQPFATKDPKIFKDSEKFVGDRFVGEEGEKLLKYVYWSNERETVEPTAENKQCPGKNLVVLIGRIMVVEFFLRYDTFTVEVADLPLGPAVKFKSLTRATDMV
# B2: lyase: fatty acid 9-hydroperoxide lyase of muskmelon (Cucumis melo), SEQ ID NO:7, recombinantly expressed in E. coli (protein)
# chain: MATPSSSSPELPLKPIPGGYGFPFLGPIKDRYDYFYFQGRDEFFRSRITKYNSTVFRANMPPGPFISSDSRVVVLLDALSFPILFDTAKVEKRNILDGTYMPSLSFTGNIRTCAYLDPSETEHSVLKRLFLSFLASRHDRFIPLFRSSLSEMFVKLEDKLSEKKKIADFNSISDSMSFDYVFRLLSDGTPDSKLAAEGPGMFDLWLVFQLAPLASIGLPKIFSVFEDLVIHTIPLPFFPVKSGYRKLYEAFYSSSGSFLDEAEKQGIDREKACHNLVFLAGFNAYGGMKVLFPTLLKWVGTAGEDLHRKLAEEVRTTVKEEGGLTFSALEKMSLLKSVVYEALRIEPPVPFQYGKAKEDIVIQSHDSSFKIKKGETIFGYQPFATKDPKIFKDSEKFVGDRFVGEEGEKLLKYVYWSNERETVEPTAENKQCPGKNLVVLIGRIMVVEFFLRYDTFTVEVADLPLGPAVKFKSLTRATDMV
# modifications: Cucumis melo
# Assays:
# [1] = molecular target: melon 9-hydroperoxide lyase (9-HPL) (Cucumis melo, UniProt A0A1S3BZK9); assay: Kinetics of melon 9-HPL with fatty acid hydroperoxide substrates (spectrophotometric assay, decrease in absorbance at 235 nm); type: biochemical; settings: relative to 9-hydroperoxylinolenic acid; 'preferably approximately' value
# Experimental: The resulting pellet of cells was resuspended in Tris-acetate buffer (0.1 M, pH 7.6) containing sucrose (0.5 M), EDTA (0.5 mM) and lysozyme (1 mg/ml). After 30 min on ice, the mixture was centrifuged as before to obtain a pellet of spheroplastes. These were resuspended in potassium phosphate buffer (0.1 M, pH 7.6) containing magnesium acetate (6 mM), glycerol (20% v/v) and DTT (0.1 mM) and the mixture left for 10 min at −80° C. Following this, a protease inhibitor was added (PMSF, 1 mM) and the cells sonicated (2×30 seconds). […] Compared to the control protein produced from vector alone with no cDNA insert, there was less protein, but the bacterial lysates of each gave easily measurable catalytic activity. By monitoring the disappearance of the UV-235 nm absorbance of the fatty acid hydroperoxide substrates, less than 1 μl (<10 μg crude protein) of the suspended and lysed bacterial pellets were required in order to observe reaction in a 1 ml UV cuvette. Measurement was made using the spectrophotometric assay (decrease in absorbance at 235 nm) and the initial rates of reaction. The turnover number of the purified 9-HPL enzyme (number of product molecules formed per molecule of enzyme) using 9S-hydroperoxylinoleic acid as substrate was calculated from the known concentration of the enzyme (measured at the Soret maximum at 416 nm, and using a molar extinction coefficient of 100,000), and the measured rates of change of substrate concentration (using the molar extinction coefficient of 23,000 at 235 nm of the conjugated diene).
# [2] = substrate: CC/C=C\C[C@@H](/C=C/C=C\CCCCCCCC(=O)O)OO; assay: as above; type: biochemical, Cucumis melo; settings: 95% confidence limits given; pH 7.6
# Experimental: (§1) The resulting pellet of cells was resuspended in Tris-acetate buffer (0.1 M, pH 7.6) containing sucrose (0.5 M), EDTA (0.5 mM) and lysozyme (1 mg/ml). After 30 min on ice, the mixture was centrifuged as before to obtain a pellet of spheroplastes. These were resuspended in potassium phosphate buffer (0.1 M, pH 7.6) containing magnesium acetate (6 mM), glycerol (20% v/v) and DTT (0.1 mM) and the mixture left for 10 min at −80° C. Following this, a protease inhibitor was added (PMSF, 1 mM) and the cells sonicated (2×30 seconds). […] By monitoring the disappearance of the UV-235 nm absorbance of the fatty acid hydroperoxide substrates, less than 1 μl (<10 μg crude protein) of the suspended and lysed bacterial pellets were required in order to observe reaction in a 1 ml UV cuvette. Measurement was made using the spectrophotometric assay (decrease in absorbance at 235 nm) and the initial rates of reaction. The turnover number of the purified 9-HPL enzyme (number of product molecules formed per molecule of enzyme) using 9S-hydroperoxylinoleic acid as substrate was calculated from the known concentration of the enzyme (measured at the Soret maximum at 416 nm, and using a molar extinction coefficient of 100,000), and the measured rates of change of substrate concentration (using the molar extinction coefficient of 23,000 at 235 nm of the conjugated diene).
# [3] = substrate: CCCCC/C=C\C=C\[C@H](CCCCCCCC(=O)O)OO; assay: as above; type: biochemical, Cucumis melo; settings: 95% confidence limits given; pH 7.6
# Experimental: as §1
# [4] = pH dependence of the activity of the lyase; type: biochemical, Cucumis melo
molecule,measurement,setting,value
"CCCCC/C=C\C=C\[C@H](CCCCCCCC(=O)O)OO [9-hydroperoxylinoleic acid, (9S, 10E, 12Z) 9-hydroperoxyoctadeca-10,12-dienoic acid]",Km as percentage of the Km of the lyase for 9-hydroperoxylinolenic acid,[1],approximately 54%
same,Vmax as percentage of the Vmax of the lyase for 9-hydroperoxylinolenic acid,[1],approximately 55%
"CCCCC[C@@H](/C=C/C=C\CCCCCCCC(=O)O)OO [13-hydroperoxylinoleic acid, (9Z,11E,13S)13-hydroperoxyoctadeca-9,11-dienoic acid]",Vmax as percentage of the Vmax of the lyase for 9-hydroperoxylinolenic acid,[1],approximately 30%
"CC/C=C\C[C@@H](/C=C/C=C\CCCCCCCC(=O)O)OO [13-hydroperoxylinolenic acid, (9Z, 11E, 13S, 15Z) 13-hydroperoxyoctadeca-9,11,15-trienoic acid]",Vmax as percentage of the Vmax of the lyase for 9-hydroperoxylinolenic acid,[1],approximately 22%
B1,Km,[2],50 µM and 51 µM
same,Km,[3],192 µM
B2,activity as percentage of maximal activity,[4]; pH 5.0,approximately 25%
same,activity as percentage of maximal activity,[4]; pH 9.0,approximately 15%
